From patent publication US20120283096A1, “AGENT FOR IMPROVING PLANT GROWTH, SEEDS, AND METHOD FOR IMPROVING PLANT GROWTH” (Incorporated Administrative Agency National Agricu lture …, priority 2010, published 2012)
Read-outs that look alike come from different tables or passages of the source.

Key:
paddy seeds = test: Possibility of growth of paddy seeds in tank farming without soil (Example 3)
Description: (§1) The decay-inhibiting effect of molybdenum-containing substances in tank farming without soil was examined.
(§2) The possibility of growth and the inhibition of decay were determined in the same manner as above.

decay of paddy seeds = test: Decay-inhibiting effect in tank farming without soil (Example 3); conditions: for Inhibition of decay, Amount of molybdenum or tungsten added to seed: seeds covered with substance, soaked two weeks in water at 30° C.; for Soaking: Inhibition of decay, Concentration of Molybdenum in Solution: paddy seeds left soaked two weeks in the solution at 30° C., no soil, water did not rot, no rotten smell; for Ten-minute soaking: Inhibition of decay, Concentration of Molybdenum in Solution: seeds soaked ten minutes in the solution, then two weeks in water at 30° C.
Description: as §1, §2

[1] = in water, powder, cited from earlier work
paddy rice [2] = test: Seedling establishment of coated paddy seeds in submerged soil containers (Examples 4-1 to 4-4b, FIGS. 11, 14-19c); format: in vivo; conditions: dry seeds, 25 wt % calcium peroxide alone at 0.1 or less time the weight of dry seed, 30° C., FIG. 19c
Description: The germinated paddy seeds were soaked for one minute in a tenfold diluted solution of a commercially available laundry starch (manufactured by Rocket Soap Co., Ltd.; My Laundry Starch) containing approximately a little less than 10% by weight of polyvinyl alcohol, centrifuged at 1000 rpm for removal of the extra solution, and, immediately after that, lightly covered with different amounts of ammonium molybdophosphate, whereby seeds with different amounts of ammonium molybdophosphate were prepared.
It should also be noted that in each of FIGS. 14 through 15b, the horizontal axis represents the number of moles (mmol) of molybdenum or tungsten that adhered per gram of dry seed. In each of FIGS. 14 through 15b, the dots correspond to the numbers of moles of 0, 0.02, 0.05, 0.1, 0.2, 0.5, 1, and 2 mmol, starting from the left.
It should be noted that in each of FIGS. 16 through 18, the horizontal axis represents the number of moles (mmol) of molybdenum that adhered per gram of dry seed. In each of FIGS. 16 through 18, the dots correspond to the numbers of moles of 0, 0.02, 0.05, 0.1, 0.2, 0.5, 1, and 2 mmol, starting from the left.
It should be noted that in FIG. 19a, the horizontal axis represents the number of moles (mmol) of molybdenum that adhered per gram of dry seed. In FIG. 19a, the dots correspond to the numbers of moles of 0, 0.02, 0.05, 0.1, 0.2, 0.5, 1, and 2 mmol, starting from the left.
The resulting seeds were allowed to spend time in a sufficiently wet condition so that the iron rusted, and then allowed to further spend overnight. […] Six containers were allotted for each condition, and the proportion of seedling establishment and the standard error were examined. It should be noted that in FIG. 19b, the horizontal axis represents the number of moles (mmol) of molybdenum that adhered per gram of dry seed. In FIG. 19b, the dots correspond to the numbers of moles of 0, 0.02, 0.05, 0.1, 0.2, 0.5, 1, and 2 mmol, starting from the left.
Six containers were allotted for each condition, and the proportion of seedling establishment and the standard error were examined. It should be noted that in FIG. 19c, the horizontal axis represents the actual weight ratios of 25 wt % calcium peroxide that adhered with respect to the weight of dry seed. In FIG. 19c, the dots correspond to the actual weight ratios of 25 wt % calcium peroxide of 0, 0.01, 0.02, 0.05, 0.1, 0.2, 0.5, and 1 time, starting from the left.

paddy rice [3] = test: Seedling establishment of paddy seeds soaked in solutions of readily-soluble molybdenum substances (Example 2-2, FIGS. 8 and 13); format: in vivo
Description: The examination of the proportion of seedling establishment was carried out under the same conditions as the examination whose results are shown in FIG. 8, except for the molybdenum concentration and the duration of soaking.

sulfide ion generation = test: Inhibition of sulfide ion generation, paddy seeds covered with slightly-soluble substances (Example 2-3, FIG. 9); conditions: approximately 0.1 mmol/g (per dry seeds) in terms of molybdenum or tungsten
Source text: The water on slightly germinated seeds was lightly wiped off, and immediately after that, the seeds were put with (lightly covered with) various amounts of the slightly-soluble substances shown in Table 1. […] The number of days for which sulfide ion generation was inhibited and the proportion of seedling establishment were examined.

sulfide ions = test: Inhibiting effect of molybdenum added to soil on sulfide ions (Example 1-3, FIG. 4); conditions: supernatant after shaking soil, 30° C., two weeks after seeding
Description: An inhibiting effect of a molybdenum-containing substance on sulfide ions was examined in relation to the degrees of generation of ferric sulfide in soil and the concentrations of molybdenum in soil solutions, and the results are shown in FIG. 4. The results shown in FIG. 4 were obtained from samples obtained in the same manner as in Example 1-2. Since methylene blue decolorizes in a reduced state, methylene blue weighing 0.1% of dry soil was added to each sample of soil so that a reduced state of the soil could be detected. The supernatant liquids obtained after shaking the samples of soil thus adjusted had molybdenum concentrations shown in FIG. 4.

[4] = paddy seeds left soaked two weeks in the solution at 30° C., no soil, concentration at which sheath leaf elongation was observed
[5] = seeds soaked ten minutes in the solution, then two weeks in water at 30° C.
[6] = seeds covered with substance, soaked two weeks in water at 30° C.
[7] = 3 M molybdenum solution, one-minute soaking, FIG. 13

[O]=[W](=[O])([OH])[OH] [Tungstic acid]
Possibility of growth, Amount of molybdenum or tungsten added to seed (paddy seeds; in vivo): > 1 mmol/g
Inhibition of decay, Amount of molybdenum or tungsten added to seed (decay of paddy seeds): 1< mmol g^−1
Water solubility [1]: Slightly soluble (has a percentage of solubility of 10% by weight or lower with respect to water)

[Ca+2].[O-][O-] [calcium peroxide, reference compound]
proportion of seedling establishment (paddy rice [2]): ≤ 20%

O.O.[Na+].[Na+].[O]=[Mo](=[O])([O-])[O-] [Sodium molybdate, Sodium molybdate dihydrate]
Soaking: Possibility of growth, Concentration of Molybdenum in Solution (paddy seeds; [4]): 0.03 M
Ten-minute soaking: Possibility of growth, Concentration of Molybdenum in Solution (paddy seeds; [5]): 1< M
Soaking: Inhibition of decay, Concentration of Molybdenum in Solution (decay of paddy seeds): 0.1 M
Ten-minute soaking: Inhibition of decay, Concentration of Molybdenum in Solution (decay of paddy seeds): 0.3 M
Water solubility ([1]; dihydrate): Readily soluble
Water solubility ([1]; listed as sodium molybdate, dihydrate): readily soluble

[Ca+2].[O]=[Mo](=[O])([O-])[O-] [Calcium molybdate]
Possibility of growth, Amount of molybdenum or tungsten added to seed (paddy seeds; [6]): 1 mmol/g
Inhibition of decay, Amount of molybdenum or tungsten added to seed (decay of paddy seeds): 0.3 mmol/g

12-moblybdo(VI)phosphoric acid n-hydrate [Molybdophosphoric acid]
proportion of seedling establishment (paddy rice [3]; [7]): improvement in proportion of seedling establishment
Soaking: Inhibition of decay, Concentration of Molybdenum in Solution (decay of paddy seeds): <0.02 M
Ten-minute soaking: Inhibition of decay, Concentration of Molybdenum in Solution (decay of paddy seeds): 0.1 M

Sodium phosphomolybdate n-hydrate [Sodium molybdophosphate]
molybdenum concentration of the soaking solution at which proportion of seedling establishment improved (paddy rice [3]; ten-minute soaking, FIG. 8): approximately 1 M
proportion of seedling establishment (paddy rice [3]; ten-minute soaking, soaking solution 2 M molybdenum): decrease in proportion of seedling establishment
Soaking: Possibility of growth, Concentration of Molybdenum in Solution (paddy seeds; in vivo): <0.02 M
Ten-minute soaking: Possibility of growth, Concentration of Molybdenum in Solution (paddy seeds; in vivo): > 1 M
Soaking: Inhibition of decay, Concentration of Molybdenum in Solution (decay of paddy seeds): <0.02 M
Ten-minute soaking: Inhibition of decay, Concentration of Molybdenum in Solution (decay of paddy seeds): 0.1 M
Water solubility [1]: Readily soluble
Water solubility ([1]; listed as sodium molybdophosphate): readily soluble

[O]=[Mo](=[O])([OH])[OH] [Molybdic acid]
number of days for which sulfide ion generation was inhibited (sulfide ion generation): fourteen
Possibility of growth, Amount of molybdenum or tungsten added to seed (paddy seeds; in vivo): > 2 mmol/g
Inhibition of decay, Amount of molybdenum or tungsten added to seed (decay of paddy seeds): <0.02 mmol/g
Water solubility [1]: Slightly soluble (has a percentage of solubility of 10% by weight or lower with respect to water)
Water solubility ([1]; listed as molybdic acid): slightly soluble

[O]=[W](=[O])=[O] [Tungsten oxide, Tungsten oxide (VI)]
number of days for which sulfide ion generation was inhibited (sulfide ion generation): fourteen
Possibility of growth, Amount of molybdenum or tungsten added to seed (paddy seeds; in vivo): > 1 mmol/g
Inhibition of decay, Amount of molybdenum or tungsten added to seed (decay of paddy seeds): 1< mmol g^−1
Water solubility [1]: Slightly soluble (has a percentage of solubility of 10% by weight or lower with respect to water)

[H+].[H+].[NH4+].[NH4+].[NH4+].[NH4+].[NH4+].[NH4+].[NH4+].[NH4+].[NH4+].[NH4+].[O]=[W](=[O])([O-])[O-].[O]=[W](=[O])([O-])[O-].[O]=[W](=[O])([O-])[O-].[O]=[W](=[O])([O-])[O-].[O]=[W](=[O])([O-])[O-].[O]=[W](=[O])([O-])[O-].[O]=[W](=[O])=[O].[O]=[W](=[O])=[O].[O]=[W](=[O])=[O].[O]=[W](=[O])=[O].[O]=[W](=[O])=[O].[O]=[W](=[O])=[O] [Ammonium paratungstate, Ammonium tungstate parapentahydrate]
Possibility of growth, Amount of molybdenum or tungsten added to seed (paddy seeds; [6]): 0.3 mmol/g
Inhibition of decay, Amount of molybdenum or tungsten added to seed (decay of paddy seeds): <0.3 mmol/g
Water solubility [1]: Slightly soluble (has a percentage of solubility of 10% by weight or lower with respect to water)

Ammonium phosphotungstate trihydrate [Ammonium tungstophosphate]
Possibility of growth, Amount of molybdenum or tungsten added to seed (paddy seeds; in vivo): > 1 mmol/g
Inhibition of decay, Amount of molybdenum or tungsten added to seed (decay of paddy seeds): 1< mmol g^−1

Potassium phosphomolybdate [Potassium molybdophosphate]
Water solubility [1]: Slightly soluble (has a percentage of solubility of 10% by weight or lower with respect to water)
Water solubility ([1]; listed as potassium molybdophosphate): slightly soluble

[Mg+2].[O]=[Mo](=[O])([O-])[O-] [Magnesium molybdate]
Water solubility [1]: Slightly soluble (has a percentage of solubility of 10% by weight or lower with respect to water)
Water solubility ([1]; listed as magnesium molybdate): slightly soluble

Silicomolybdic acid n-hydrate [Molybdosilicic acid]
proportion of seedling establishment (paddy rice [3]; [7]): improvement in proportion of seedling establishment
Water solubility [1]: Readily soluble
Water solubility ([1]; listed as molybdosilicic acid): readily soluble

Ammonium molybdate tetrahydrate
Soaking: Inhibition of decay, Concentration of Molybdenum in Solution (decay of paddy seeds): <0.02 M
Ten-minute soaking: Inhibition of decay, Concentration of Molybdenum in Solution (decay of paddy seeds): 0.1 M

[K+].[K+].[O]=[Mo](=[O])([O-])[O-] [Potassium molybdate]
molybdenum concentration at which sulfide ions were effectively inhibited (sulfide ions): ≥ 0.2 mM
molybdenum concentration up to which black circles were observed in the soil (sulfide ions): ≤ 0.06 mM
Soaking: Possibility of growth, Concentration of Molybdenum in Solution (paddy seeds; [4]): 0.02 M
Ten-minute soaking: Possibility of growth, Concentration of Molybdenum in Solution (paddy seeds; [5]): 1< M
Soaking: Inhibition of decay, Concentration of Molybdenum in Solution (decay of paddy seeds): 0.3 M
Ten-minute soaking: Inhibition of decay, Concentration of Molybdenum in Solution (decay of paddy seeds): 0.5 M
Water solubility [1]: Readily soluble
Water solubility ([1]; listed as potassium molybdate): readily soluble
